How the values were obtained:
Format in all cases: biochemical
[1] = target: T1, Recombinant human SSAO protein (Homo sapiens, UniProt Q16853); assay: In vitro inhibitory activity on SSAO/VAP-1 (MAO-Glo assay); conditions: compound 1 μM to 0.05 nM
T1 construct: Eli Lilly (provided, not purchased)
T1 sequence (Q16853 1-763): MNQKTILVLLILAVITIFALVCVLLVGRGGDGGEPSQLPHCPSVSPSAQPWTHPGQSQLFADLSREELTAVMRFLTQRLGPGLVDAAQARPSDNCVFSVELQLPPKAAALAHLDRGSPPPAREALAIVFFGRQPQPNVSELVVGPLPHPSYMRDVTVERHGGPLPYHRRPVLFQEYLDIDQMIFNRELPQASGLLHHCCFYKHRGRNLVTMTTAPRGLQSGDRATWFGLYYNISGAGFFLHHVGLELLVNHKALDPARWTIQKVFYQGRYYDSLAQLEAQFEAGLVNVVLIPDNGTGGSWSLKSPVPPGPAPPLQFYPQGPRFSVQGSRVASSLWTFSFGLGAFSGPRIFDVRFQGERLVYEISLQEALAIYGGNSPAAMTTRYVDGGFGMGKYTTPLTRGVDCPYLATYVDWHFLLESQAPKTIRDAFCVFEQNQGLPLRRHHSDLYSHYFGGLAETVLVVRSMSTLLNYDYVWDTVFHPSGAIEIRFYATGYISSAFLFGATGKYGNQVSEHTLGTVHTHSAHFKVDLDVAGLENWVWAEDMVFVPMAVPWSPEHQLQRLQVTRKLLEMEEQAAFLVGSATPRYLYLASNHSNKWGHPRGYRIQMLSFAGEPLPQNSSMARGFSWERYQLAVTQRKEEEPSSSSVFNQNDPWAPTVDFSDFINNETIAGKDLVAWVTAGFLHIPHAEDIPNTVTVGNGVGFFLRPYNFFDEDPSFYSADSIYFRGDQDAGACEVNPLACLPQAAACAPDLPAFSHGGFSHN
Protocol: (§1) This assay was used to evaluate the in vitro inhibitory activity of the compounds against SSAO/VAP-1 of different species. Recombinant human SSAO protein, mouse SSAO protein or rat SSAO protein (provided by Eli Lilly) were used. The enzyme activity detection kit, MAO-Glo Assay kit (V1402) was purchased from Promega. Enzyme reaction buffer (50 mM HEPES, 120 mM NaCl, 5 mM KCl, 2 mM CaCl2, 1.4 mM MgCl2, 0.001% Tween-20, pH 7.4) was prepared. The test compounds were dissolved in DMSO and serially diluted by 3-fold. The final concentration of test compound in a 10 μL reaction system was 1 μM to 0.05 nM when SSAO activity was detected. The content of DMSO in the detection reaction system was 1%. After the DMSO solution of test compounds was diluted in the enzyme reaction buffer at a volume ratio of 1:25, 2.5 μL of the solution was added to each well of detection plate with two replicates for each concentration. 5 μL of SSAO protein diluted in the enzyme reaction buffer was added to each well, the final concentration of which was 10 nM to 80 nM in 10 μL reaction system. […] The reaction solution was incubated for 20 minutes at room temperature, and the plate was read with Synergy Neo 2 for detection. […]
(§2) Signalpositive was signal of positive control wells without test compounds added. […] IC50 value was calculated by using 4 parameters curve fitting.

[2] = target: T2, Recombinant human AOC1/DAO protein (Homo sapiens, UniProt P19801); assay: Inhibitory activity on AOC1 (Amplex UltraRed/HRP, putrescine substrate); conditions: compound 100 μM to 5 nM
T2 construct: purchased R&D systems 8298-AO
T2 sequence (P19801 20-751): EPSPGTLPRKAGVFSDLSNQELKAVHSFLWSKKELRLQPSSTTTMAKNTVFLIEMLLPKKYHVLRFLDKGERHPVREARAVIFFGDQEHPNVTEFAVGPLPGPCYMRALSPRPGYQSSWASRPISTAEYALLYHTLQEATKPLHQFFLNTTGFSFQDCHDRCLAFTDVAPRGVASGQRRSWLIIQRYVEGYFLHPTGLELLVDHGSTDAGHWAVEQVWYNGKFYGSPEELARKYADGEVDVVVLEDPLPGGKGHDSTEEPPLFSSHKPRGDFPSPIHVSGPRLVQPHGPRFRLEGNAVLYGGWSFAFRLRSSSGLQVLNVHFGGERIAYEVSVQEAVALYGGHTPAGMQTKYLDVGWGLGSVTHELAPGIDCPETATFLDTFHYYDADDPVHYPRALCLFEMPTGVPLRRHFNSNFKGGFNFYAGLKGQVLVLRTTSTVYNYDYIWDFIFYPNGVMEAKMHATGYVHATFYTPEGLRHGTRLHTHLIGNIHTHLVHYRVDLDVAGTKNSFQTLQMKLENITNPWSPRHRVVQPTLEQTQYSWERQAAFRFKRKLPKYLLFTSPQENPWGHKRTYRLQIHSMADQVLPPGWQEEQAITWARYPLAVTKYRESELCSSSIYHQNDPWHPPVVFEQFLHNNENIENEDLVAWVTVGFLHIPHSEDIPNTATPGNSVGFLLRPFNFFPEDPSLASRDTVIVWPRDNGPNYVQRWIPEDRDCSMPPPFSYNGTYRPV
Protocol: Recombinant human AOC1/DAO protein was purchased from R&D systems (Cat: 8298-AO). Amplex UltraRed was purchased from Thermo scientific (Cat: A36006). HRP (Cat: P8250) and Putrescine (Cat: V900377) were purchased from Sigma. Enzyme reaction buffer (50 mM HEPES, 120 mM NaCl, 5 mM KCl, 2 mM CaCl2, 1.4 mM MgCl2, 0.001% Tween-20, pH7.4) was prepared. Test compound was dissolved in DMSO and serially diluted by 3-fold. The final concentration of test compound in 10 μL reaction system was 100 μM to 5 nM when AOC1 activity was detected. The content of DMSO in detection reaction system was 1%. After the DMSO solution of test compound was diluted in the enzyme reaction buffer at a volume ratio of 1:25, 10 μL of mixture was added to each well of detection plate. 4× substrate mixture (containing 400 μM Putrescine, 4U/mL HRP, 4 μM Amplex UltraRed) was prepared in the enzyme reaction buffer, 10 μL of which was added to each well. 20 μL of AOC1 protein diluted in enzyme reaction buffer was added to each well and the final concentration was 0.4 nM in 40 μL reaction system. Synergy Neo 2 was used to read the plate for detection. […] The enzyme activity was calculated based on the increased signal of each well from the 10th minute to the 30th minute. […]
as §2

[3] = target: T3, Recombinant human AOC2 protein (Homo sapiens, UniProt O75106); assay: Inhibitory activity on AOC2 (MAO-Glo assay); conditions: compound 100 μM to 5 nM
T3 construct: Eli Lilly (provided, not purchased)
T3 sequence (O75106 1-756): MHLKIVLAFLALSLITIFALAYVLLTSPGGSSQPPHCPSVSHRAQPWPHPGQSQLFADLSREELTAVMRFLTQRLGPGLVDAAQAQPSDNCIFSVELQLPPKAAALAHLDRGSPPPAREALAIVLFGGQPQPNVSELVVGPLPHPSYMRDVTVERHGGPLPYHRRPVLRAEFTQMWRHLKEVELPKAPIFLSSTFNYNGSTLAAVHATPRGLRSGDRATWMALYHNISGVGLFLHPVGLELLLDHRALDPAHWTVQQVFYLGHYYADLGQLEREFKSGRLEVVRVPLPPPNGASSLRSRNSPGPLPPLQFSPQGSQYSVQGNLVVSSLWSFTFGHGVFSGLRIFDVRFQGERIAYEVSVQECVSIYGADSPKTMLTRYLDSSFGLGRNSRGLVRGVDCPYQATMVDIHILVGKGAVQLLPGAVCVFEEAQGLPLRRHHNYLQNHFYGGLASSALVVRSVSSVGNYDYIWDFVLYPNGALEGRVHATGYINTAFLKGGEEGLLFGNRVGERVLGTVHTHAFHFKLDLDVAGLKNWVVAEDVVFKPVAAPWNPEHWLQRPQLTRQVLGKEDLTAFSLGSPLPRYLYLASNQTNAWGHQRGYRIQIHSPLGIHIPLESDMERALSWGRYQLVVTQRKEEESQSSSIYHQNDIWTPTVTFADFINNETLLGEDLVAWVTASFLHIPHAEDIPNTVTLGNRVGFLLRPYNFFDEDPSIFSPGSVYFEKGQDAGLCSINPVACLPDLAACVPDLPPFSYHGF
Protocol: as §1, with “1%.” for “1%. After the DMSO solution of test compounds was diluted in the enzyme reaction buffer at a volume ratio of 1:25, 2.5 μL of the solution was added to each well of detection plate with two replicates for each concentration. 5 μL of SSAO protein diluted in the enzyme reaction buffer was added to each well, the final concentration of which was 10 nM to 80 nM in 10 μL reaction system.”
as §2
Recombinant human AOC2 protein (provided by Eli Lilly). […] The final concentration of test compound in 10 μL reaction system was 100 μM to 5 nM when AOC2 activity was detected, while other reaction conditions were the same as those in Biological Test Example 1. […]

Recombinant human MAO-A = target: T4, Recombinant human MAO-A (Homo sapiens, UniProt P21397); assay: Inhibitory activity on MAO-A (MAO-Glo assay); conditions: recombinant human MAO-A 70 nM; compound 100 μM to 5 nM
T4 construct: purchased Sigma M7316
T4 sequence (P21397 1-527): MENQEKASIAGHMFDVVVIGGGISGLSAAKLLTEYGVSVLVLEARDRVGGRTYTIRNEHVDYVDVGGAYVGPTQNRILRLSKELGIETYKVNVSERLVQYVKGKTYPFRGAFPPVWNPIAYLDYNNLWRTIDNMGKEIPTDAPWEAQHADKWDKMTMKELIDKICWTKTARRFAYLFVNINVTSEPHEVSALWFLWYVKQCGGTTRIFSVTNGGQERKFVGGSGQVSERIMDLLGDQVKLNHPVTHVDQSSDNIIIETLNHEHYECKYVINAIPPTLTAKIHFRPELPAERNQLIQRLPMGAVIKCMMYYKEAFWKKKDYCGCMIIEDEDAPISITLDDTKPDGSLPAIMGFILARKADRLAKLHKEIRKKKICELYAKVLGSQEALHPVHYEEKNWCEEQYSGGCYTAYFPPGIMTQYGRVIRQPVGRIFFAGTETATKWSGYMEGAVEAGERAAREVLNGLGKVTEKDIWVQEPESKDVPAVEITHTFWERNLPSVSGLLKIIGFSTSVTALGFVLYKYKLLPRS
Protocol: as §1, with “concentration.” for “concentration. 5 μL of SSAO protein diluted in the enzyme reaction buffer was added to each well, the final concentration of which was 10 nM to 80 nM in 10 μL reaction system.”
as §2
(§3) Recombinant human MAO-A and MAO-B protein was purchased from Sigma (M7316, M7441). […] The final concentration of test compound in 10 μL reaction system was 100 μM to 5 nM when MAO-A and MAO-B activity were detected. […]

Recombinant human MAO-B = target: T5, Recombinant human MAO-B (Homo sapiens, UniProt P27338); assay: Inhibitory activity on MAO-B (MAO-Glo assay); conditions: recombinant human MAO-B 300 nM; compound 100 μM to 5 nM
T5 construct: purchased Sigma M7441
T5 sequence (P27338 1-520): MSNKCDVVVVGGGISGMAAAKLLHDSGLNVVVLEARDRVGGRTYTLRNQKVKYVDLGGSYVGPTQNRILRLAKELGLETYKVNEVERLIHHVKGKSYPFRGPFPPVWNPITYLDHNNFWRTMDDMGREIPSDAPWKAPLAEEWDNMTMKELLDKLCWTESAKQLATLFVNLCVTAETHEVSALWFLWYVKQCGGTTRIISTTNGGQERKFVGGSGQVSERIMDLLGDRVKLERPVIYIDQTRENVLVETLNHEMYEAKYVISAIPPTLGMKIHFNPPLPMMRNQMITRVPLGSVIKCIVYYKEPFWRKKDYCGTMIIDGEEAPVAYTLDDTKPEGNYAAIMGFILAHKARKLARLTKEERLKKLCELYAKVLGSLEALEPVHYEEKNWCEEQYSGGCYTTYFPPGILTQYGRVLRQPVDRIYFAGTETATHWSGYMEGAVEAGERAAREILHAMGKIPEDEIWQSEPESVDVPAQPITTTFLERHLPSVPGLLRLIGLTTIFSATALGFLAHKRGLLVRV
Protocol: as §1, with “concentration.” for “concentration. 5 μL of SSAO protein diluted in the enzyme reaction buffer was added to each well, the final concentration of which was 10 nM to 80 nM in 10 μL reaction system.”
as §2, §3

Row | Structure (SMILES) | IC50 [1] [µM] | IC50 [2] [µM] | IC50 [3] [µM] | IC50 (Recombinant human MAO-A) [µM] | IC50 (Recombinant human MAO-B) [µM]
1 | CC1(O)CCN(c2ncc(OC/C(=C/F)CN)cn2)CC1 [Example 1, (E)-1-(5-((2-(Aminomethyl)-3-fluoroallyl)oxy)pyrimidin-2-yl)-4-methylpiperidin-4-ol] | < 0.01 | > 10 | > 1 | 10 to 100 | > 20
2 | COCC1(O)CCN(c2ncc(OC/C(=C/F)CN)cn2)CC1 [Example 2, (E)-1-(5-((2-(aminomethyl)-3-fluoroallyl)oxy)pyrimidin-2-yl)-4-(methoxymethyl)piperidin-4-ol] | < 0.01 | 0.1 to 10 | > 1 | > 100 | > 20
